This experiment concerns BDF1 mice, intracerebral B16 melanoma, median survival T/C. Briefly: NCI In Vivo Anticancer Drug Screen. Data for tumor model B16 Melanoma (intracerebral) in B6D2F1 (BDF1) mice. Conditions: endpoint: median survival time, higher = longer survival. The method, then:
The antitumor activity of compounds was measured in mice bearing transplantable tumors. Survival or tumor size were measured and the results are expressed as the measurement made in the treated group (T) divided by the measurement made in the vehicle treated control group (C). The tumor model used in this assay is B16 Melanoma (intracerebral) in B6D2F1 (BDF1) mice

Setting [1] is: dose: 4.0 mg/kg/injection, schedule: Q01DX005 (ip), vehicle: suspension in saline.
The mark [2] stands for this setting: dose: 8.0 mg/kg/injection, schedule: Q01DX005 (ip), vehicle: suspension in saline.
[3] abbreviates: dose: 16.0 mg/kg/injection, schedule: Q01DX005 (ip), vehicle: suspension in saline.
The mark [4] stands for this setting: dose: 32.0 mg/kg/injection, schedule: Q01DX005 (ip), vehicle: saline with Tween-80.
Where [5] appears, read: dose: 32.0 mg/kg/injection, schedule: Q01DX005 (ip), vehicle: suspension in saline.
[6] abbreviates: dose: 1.0 mg/kg/injection, schedule: Q01DX009 (ip), vehicle: saline.
Setting [7] is: dose: 2.0 mg/kg/injection, schedule: Q01DX009 (ip), vehicle: saline.
Setting [8] is: dose: 6.25 mg/kg/injection, schedule: Q01DX009 (ip), vehicle: other.
Setting [9] is: dose: 12.5 mg/kg/injection, schedule: Q01DX009 (ip), vehicle: other.
[10] abbreviates: dose: 25.0 mg/kg/injection, schedule: Q01DX009 (ip), vehicle: other.
The mark [11] stands for this setting: dose: 50.0 mg/kg/injection, schedule: Q01DX009 (ip), vehicle: other.
Where [12] appears, read: dose: 100.0 mg/kg/injection, schedule: Q01DX009 (ip), vehicle: other.

Values joined by “and” are separate entries in the source; they are usually repeats but may differ in a detail not shown here. Identical values can stand only once. Inconclusive results and toxic doses are left out.

Regarding `CC(C)=CCC1=C(O)c2ccccc2C(=O)C1=O`, the T/C is 98 % of control (dose: 32.0 mg/kg/injection, schedule: Q01DX005 (ip), vehicle: Klucel (hydroxypropylcellulose) (HPC)); 90 % of control and 96 % of control (dose: 64.0 mg/kg/injection, schedule: Q01DX005 (ip), vehicle: Klucel (hydroxypropylcellulose) (HPC)); 87 % of control and 105 % of control (dose: 128.0 mg/kg/injection, schedule: Q01DX005 (ip), vehicle: Klucel (hydroxypropylcellulose) (HPC)); 90 % of control and 96 % of control (dose: 256.0 mg/kg/injection, schedule: Q01DX005 (ip), vehicle: Klucel (hydroxypropylcellulose) (HPC)).

As to `NC(=O)N(CCCl)N=O`, the T/C by setting is: (dose: 1.0 mg/kg/injection, schedule: Q01DX001 (ip), vehicle: saline + alcohol) 102 % of control; (dose: 2.0 mg/kg/injection, schedule: Q01DX001 (ip), vehicle: saline + alcohol) 112 % of control; (dose: 4.0 mg/kg/injection, schedule: Q01DX001 (ip), vehicle: saline + alcohol) 121 % of control.

Take `CCC1=C(c2ccc(OC)cc2)CCC(C(=O)O)C1C` (stereo not drawn): the T/C (dose: 4.0 mg/kg/injection, schedule: Q01DX005 (ip), vehicle: saline with Tween-80) was 95 % of control; the T/C under setting [1] was 103 % of control; the T/C (dose: 8.0 mg/kg/injection, schedule: Q01DX005 (ip), vehicle: saline with Tween-80) was 91 % of control; the T/C under setting [2] is 95 % of control; the T/C under setting [3] was 87 % of control; the T/C under setting [4] is 105 % of control. The T/C under setting [5] is 95 % of control.

For the compound `COc1ccc2c(c1OC(C)=O)-c1cc(O)cc3c1C(C2)N(C(=O)CN(CCCl)CCCl)CC3` (stereo not drawn), the T/C is 96 % of control (dose: 3.12 mg/kg/injection, schedule: Q01DX009 (ip), vehicle: saline with Tween-80); 100 % of control (dose: 6.25 mg/kg/injection, schedule: Q01DX009 (ip), vehicle: saline with Tween-80); 104 % of control (dose: 8.0 mg/kg/injection, schedule: Q01DX005 (ip), vehicle: DMSO); 93 % of control (dose: 12.5 mg/kg/injection, schedule: Q01DX009 (ip), vehicle: saline with Tween-80); 106 % of control (dose: 16.0 mg/kg/injection, schedule: Q01DX005 (ip), vehicle: DMSO).

As for `COc1cc(NS(C)(=O)=O)ccc1Nc1c2cccc(C)c2nc2c(C)cccc12`, the T/C is 97 % of control (dose: 25.0 mg/kg/injection, schedule: Q04DX003 (ip), vehicle: Klucel (hydroxypropylcellulose) (HPC)); 104 % of control (dose: 25.0 mg/kg/injection, schedule: Q04DX003 (ip), vehicle: saline); 94 % of control (dose: 50.0 mg/kg/injection, schedule: Q04DX003 (ip), vehicle: Klucel (hydroxypropylcellulose) (HPC)); 116 % of control (dose: 50.0 mg/kg/injection, schedule: Q04DX003 (ip), vehicle: saline); 95 % of control (dose: 100.0 mg/kg/injection, schedule: Q04DX003 (ip), vehicle: saline); 104 % of control (dose: 200.0 mg/kg/injection, schedule: Q04DX003 (ip), vehicle: saline).

As for `CCCCCN(C)/N=N/c1nc[nH]c1C(N)=O`, the T/C under setting [4] was 120 % of control.

For `O=C1c2c(O)ccc(O)c2C(=O)c2c(NCCNCCO)ccc(NCCNCCO)c21`, the T/C by setting is: (dose: 0.5 mg/kg/injection, schedule: Q01DX009 (ip), vehicle: saline) 90 % of control; under setting [6], 96 % of control; under setting [7], 102 % of control.

`COc1cccc2c1C(=O)c1c(O)c3c(c(O)c1C2=O)C[C@@](O)(/C(C)=N/NC(=O)c1ccccc1)C[C@@H]3OC1CC(N)C(O)C(C)O1` (stereo partly drawn): the T/C was 105 % of control (dose: 1.0 mg/kg/injection, schedule: Q01DX009 (ip), vehicle: saline with Tween-80); 89 % of control under setting [6]; 111 % of control (dose: 2.0 mg/kg/injection, schedule: Q01DX009 (ip), vehicle: saline with Tween-80); 89 % of control and 95 % of control under setting [7]; 109 % of control (dose: 4.0 mg/kg/injection, schedule: Q01DX009 (ip), vehicle: saline with Tween-80); 93 % of control and 100 % of control (dose: 4.0 mg/kg/injection, schedule: Q01DX009 (ip), vehicle: saline). Under “dose: 8.0 mg/kg/injection, schedule: Q01DX009 (ip), vehicle: saline”, the T/C was 99 % of control.

Take `COc1cc(C[C@H]2c3cc(OC)c(OC)cc3CCN2C)c(Oc2cc3c(cc2OC)-c2c(OC)c(OC)cc4c2[C@H](C3)N(C)CC4)cc1OC`: the T/C runs as follows: (dose: 50.0 mg/kg/injection, schedule: Q01DX005 (ip), vehicle: Klucel (hydroxypropylcellulose) (HPC)) 120 % of control and 94 % of control; (dose: 100.0 mg/kg/injection, schedule: Q01DX005 (ip), vehicle: Klucel (hydroxypropylcellulose) (HPC)) 108 % of control.

In the case of `O=C1C(NCCO)=C(N2CC2)C(=O)C(NCCO)=C1N1CC1`, the T/C runs as follows: (dose: 0.09 mg/kg/injection, schedule: Q01DX009 (ip), vehicle: saline) 97 % of control; (dose: 0.19 mg/kg/injection, schedule: Q01DX009 (ip), vehicle: saline) 103 % of control; (dose: 0.38 mg/kg/injection, schedule: Q01DX009 (ip), vehicle: saline) 109 % of control; (dose: 0.75 mg/kg/injection, schedule: Q01DX009 (ip), vehicle: saline) 100 % of control.

As for `O=NN(CCF)C(=O)NC1CCC(=O)NC1=O` (stereo not drawn), the T/C (dose: 26.7 mg/kg/injection, schedule: Q01DX001 (ip), vehicle: Klucel (hydroxypropylcellulose) (HPC)) is 115 % of control; the T/C (dose: 40.0 mg/kg/injection, schedule: Q01DX001 (ip), vehicle: Klucel (hydroxypropylcellulose) (HPC)) is 111 % of control; the T/C (dose: 60.0 mg/kg/injection, schedule: Q01DX001 (ip), vehicle: Klucel (hydroxypropylcellulose) (HPC)) is 157 % of control.

Consider `CN(C)N=Nc1cccc2c1N(C)c1ccc(Cl)cc1S2`, for which the T/C is 103 % of control under setting [8]; 100 % of control under setting [9]; 108 % of control under setting [10]; 101 % of control under setting [11]; 101 % of control under setting [12].

With `CN(C)N=Nc1ccc2c(c1)N(C)c1ccc(F)cc1S2`, the T/C is 90 % of control under setting [8]; 105 % of control under setting [9]; 112 % of control under setting [10]; 105 % of control under setting [11]; 112 % of control under setting [12].

With `C[n+]1c2ccccc2nc2c(N)cc(N)cc21`, the T/C was 93 % of control under setting [1]; 92 % of control and 98 % of control under setting [2]; 100 % of control and 103 % of control under setting [3]; 93 % of control and 97 % of control under setting [5].

For the compound `N=[N+]=CC(=O)CCC(NC(=O)C(CCC(=O)C=[N+]=N)NC(=O)CCC(N)C(=O)O)C(=O)O` (stereo not drawn), the T/C runs as follows: (dose: 0.05 mg/kg/injection, schedule: Q01DX005 (ip), vehicle: Klucel (hydroxypropylcellulose) (HPC)) 124 % of control and 108 % of control; (dose: 0.1 mg/kg/injection, schedule: Q01DX005 (ip), vehicle: Klucel (hydroxypropylcellulose) (HPC)) 97 % of control and 108 % of control; (dose: 0.2 mg/kg/injection, schedule: Q01DX005 (ip), vehicle: Klucel (hydroxypropylcellulose) (HPC)) 120 % of control and 111 % of control; (dose: 0.4 mg/kg/injection, schedule: Q01DX005 (ip), vehicle: Klucel (hydroxypropylcellulose) (HPC)) 112 % of control.

As to `CN(C)N=Nc1cccc2c1N(C)c1ccc(F)cc1S2`, the T/C reads like this: under setting [8], 109 % of control; under setting [9], 110 % of control; under setting [10], 108 % of control; under setting [11], 115 % of control; under setting [12], 112 % of control.

For the compound `COc1cc(NS(C)(=O)=O)ccc1Nc1c2ccccc2nc2c(C)cccc12`, the T/C (dose: 5.0 mg/kg/injection, schedule: Q04DX003 (ip), vehicle: Klucel (hydroxypropylcellulose) (HPC)) is 88 % of control; the T/C (dose: 5.0 mg/kg/injection, schedule: Q04DX003 (ip), vehicle: saline) was 108 % of control; the T/C (dose: 10.0 mg/kg/injection, schedule: Q04DX003 (ip), vehicle: Klucel (hydroxypropylcellulose) (HPC)) was 91 % of control; the T/C (dose: 10.0 mg/kg/injection, schedule: Q04DX003 (ip), vehicle: saline) is 100 % of control; the T/C (dose: 20.0 mg/kg/injection, schedule: Q04DX003 (ip), vehicle: saline) was 116 % of control.

For the origin of these results see PubChem BioAssay AID196 (DTP/NCI, 2004).
